Experimental data as given in US9199999B2, “Substituted imidazopyrazines” (Bayer Intellectual Property GmbH, priority 2010, dated 2015).

Target: human kinase Mps-1 (Homo sapiens (Human), UniProt P33981)
Details: read-out: Mps-1 IC50; N-terminally GST-tagged human full length recombinant Mps-1; 10 μM ATP; 1 μM biotinylated peptide substrate; 60 min at 22° C.

human kinase Mps-1, sequence (P33981 whole entry): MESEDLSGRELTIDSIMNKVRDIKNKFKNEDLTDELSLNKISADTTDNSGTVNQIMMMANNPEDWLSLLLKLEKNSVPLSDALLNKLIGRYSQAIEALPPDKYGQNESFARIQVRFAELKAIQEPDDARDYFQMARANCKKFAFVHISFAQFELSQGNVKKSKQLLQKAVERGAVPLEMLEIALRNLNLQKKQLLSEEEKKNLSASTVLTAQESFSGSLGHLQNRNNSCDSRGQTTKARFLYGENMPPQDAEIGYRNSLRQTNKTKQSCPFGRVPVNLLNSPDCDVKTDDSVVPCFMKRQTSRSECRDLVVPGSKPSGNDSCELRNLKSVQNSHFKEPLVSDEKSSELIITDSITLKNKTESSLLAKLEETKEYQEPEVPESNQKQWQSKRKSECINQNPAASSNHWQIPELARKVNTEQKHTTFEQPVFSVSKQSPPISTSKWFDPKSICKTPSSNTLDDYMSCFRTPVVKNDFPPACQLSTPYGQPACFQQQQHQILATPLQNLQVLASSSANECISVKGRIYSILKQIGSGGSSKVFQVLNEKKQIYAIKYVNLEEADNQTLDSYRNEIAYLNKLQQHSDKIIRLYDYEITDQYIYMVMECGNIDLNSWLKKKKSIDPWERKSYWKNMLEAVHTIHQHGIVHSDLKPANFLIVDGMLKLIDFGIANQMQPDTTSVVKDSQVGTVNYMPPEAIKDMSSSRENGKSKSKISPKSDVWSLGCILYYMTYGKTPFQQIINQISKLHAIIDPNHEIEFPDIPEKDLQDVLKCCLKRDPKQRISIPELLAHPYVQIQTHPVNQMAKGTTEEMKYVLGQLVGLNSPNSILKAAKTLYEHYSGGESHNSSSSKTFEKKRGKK

IC50 [nM] | Structure (SMILES)
31 | O=C(NC1CC1)c1ccc(-c2cnc3c(NCCCO)nc(C#CCO)cn23)cc1 [Example 1, N-cyclopropyl-4-{8-[(3-hydroxypropyl)amino]-6-(3-hydroxyprop-1-yn-1-yl)imidazo[1,2-a]pyrazin-3-yl}benzamide]
20000 | CC(C)CNc1nc(C#Cc2ccccc2)cn2c(-c3ccc(S(=O)(=O)NC4CC4)cc3)cnc12 [Example 2, N-cyclopropyl-4-[8-(isobutylamino)-6-(phenylethynyl)imidazo[1,2-a]pyrazin-3-yl]benzenesulfonamide]
20000 | CC(C)CNc1nc(C#Cc2ccccc2F)cn2c(-c3ccc(S(=O)(=O)NC4CC4)cc3)cnc12 [Example 3, N-cyclopropyl-4-{6-[(2-fluorophenyl)ethynyl]-8-(isobutylamino)imidazo[1,2-a]pyrazin-3-yl}benzenesulfonamide]
1840 | CC(C)CNc1nc(C#CCO)cn2c(-c3ccc(S(=O)(=O)NC4CC4)cc3)cnc12 [Example 4, N-cyclopropyl-4-[6-(3-hydroxyprop-1-yn-1-yl)-8-(isobutylamino)imidazo[1,2-a]pyrazin-3-yl]benzenesulfonamide]
22 | CC(C)(O)C#Cc1cn2c(-c3ccc(C(=O)NC4CC4)cc3)cnc2c(NCCCCO)n1 [Example 8, N-cyclopropyl-4-{8-[(4-hydroxybutyl)amino]-6-(3-hydroxy-3-methylbut-1-yn-1-yl)imidazo[1,2-a]pyrazin-3-yl}benzamide]
10 | O=C(NC1CC1)c1ccc(-c2cnc3c(NCCCCO)nc(C#CC4(O)CCCC4)cn23)cc1 [Example 9, N-cyclopropyl-4-{8-[(4-hydroxybutyl)amino]-6-[(1-hydroxycyclopentyl)ethynyl]imidazo[1,2-a]pyrazin-3-yl}benzamide]
38 | CC(C)(O)CNc1nc(C#CCO)cn2c(-c3ccc(C(=O)NC4CC4)cc3)cnc12 [Example 10, N-cyclopropyl-4-{8-[(2-hydroxy-2-methylpropyl)amino]-6-(3-hydroxyprop-1-yn-1-yl)imidazo[1,2-a]pyrazin-3-yl}benzamide]
993 | COc1cc(C(=O)NC2CC2)ccc1-c1cnc2c(NCCCN)nc(C#CCO)cn12 [Example 11, 4-{8-[(3-Aminopropyl)amino]-6-(3-hydroxyprop-1-yn-1-yl)imidazo[1,2-a]pyrazin-3-yl}-N-cyclopropyl-3-methoxybenzamide]
14 | Cc1cc(-c2cnc3c(NCC(C)C)nc(C#CCO)cn23)ccc1C(=O)NC1CC1 [Example 49, N-cyclopropyl-4-{6-(3-hydroxyprop-1-yn-1-yl)-8-[(2-methylpropyl)amino]imidazo[1,2-a]pyrazin-3-yl}-2-methylbenzamide]
130 | OCC#Cc1cn2c(-c3ccc(-c4cnc(C5CC5)[nH]4)cc3)cnc2c(NC[C@H](O)CO)n1 [Example 50, (2S)-3-({3-[4-(2-cyclopropyl-1H-imidazol-5-yl)phenyl]-6-(3-hydroxyprop-1-yn-1-yl)imidazo[1,2-a]pyrazin-8-yl}amino)propane-1,2-diol]
15 | OCC#Cc1cn2c(-c3ccc(-c4cnc(C5CC5)[nH]4)cc3)cnc2c(NCCCC(F)(F)F)n1 [Example 51, 3-{3-[4-(2-Cyclopropyl-1H-imidazol-5-yl)phenyl]-8-[(4,4,4-trifluorobutyl)amino]imidazo[1,2-a]pyrazin-6-yl}prop-2-yn-1-ol]
13 | C=C(C)CNc1nc(C#CCO)cn2c(-c3ccc(-c4cnc(C5CC5)[nH]4)cc3)cnc12 [Example 52, 3-{3-[4-(2-Cyclopropyl-1H-imidazol-5-yl)phenyl]-8-[(2-methylprop-2-en-1-yl)amino]imidazo[1,2-a]pyrazin-6-yl}prop-2-yn-1-ol]
18 | C=CCNc1nc(C#CCO)cn2c(-c3ccc(-c4cnc(C5CC5)[nH]4)cc3)cnc12 [Example 53, 3-{8-(Allylamino)-3-[4-(2-cyclopropyl-1H-imidazol-5-yl)phenyl]imidazo[1,2-a]pyrazin-6-yl}prop-2-yn-1-ol]
8.4 | CC(C)CNc1nc(C#CCO)cn2c(-c3ccc(-c4cnc(C5CC5)[nH]4)cc3)cnc12 [Example 54, 3-{3-[4-(2-Cyclopropyl-1H-imidazol-5-yl)phenyl]-8-(isobutylamino)imidazo[1,2-a]pyrazin-6-yl}prop-2-yn-1-ol]
520 | CC(C)CNc1nc(C#CCO)cn2c(-c3cccc(-c4cnc(C5CC5)[nH]4)c3)cnc12 [Example 55, 3-{3-[3-(2-Cyclopropyl-1H-imidazol-5-yl)phenyl]-8-(isobutylamino)imidazo[1,2-a]pyrazin-6-yl}prop-2-yn-1-ol]
23 | OCC#Cc1cn2c(-c3ccc(-c4cnc(C5CC5)[nH]4)cc3)cnc2c(NCCCCO)n1 [Example 56, 4-({3-[4-(2-Cyclopropyl-1H-imidazol-5-yl)phenyl]-6-(3-hydroxyprop-1-yn-1-yl)imidazo[1,2-a]pyrazin-8-yl}amino)butan-1-ol]

IC50 [nM] | Structure (SMILES)
7.1 | OCC#Cc1cn2c(-c3ccc(-c4cnc(C5CC5)[nH]4)cc3)cnc2c(NCCC(F)(F)F)n1 [Example 57, 3-{3-[4-(2-Cyclopropyl-1H-imidazol-5-yl)phenyl]-8-[(3,3,3-trifluoropropyl)amino]imidazo[1,2-a]pyrazin-6-yl}prop-2-yn-1-ol]
5.3 | OCC#Cc1cn2c(-c3ccc(-c4cnc(C5CC5)[nH]4)cc3)cnc2c(NCC2CCC2)n1 [Example 58, 3-{8-[(Cyclobutylmethyl)amino]-3-[4-(2-cyclopropyl-1H-imidazol-5-yl)phenyl]imidazo[1,2-a]pyrazin-6-yl}prop-2-yn-1-ol]
53 | OCC#Cc1cn2c(-c3ccc(-c4cnc(C5CC5)[nH]4)cc3)cnc2c(NCCCO)n1 [Example 59, 3-{3-[4-(2-Cyclopropyl-1H-imidazol-5-yl)phenyl]-8-[(3-hydroxypropyl)amino]imidazo[1,2-a]pyrazin-6-yl}prop-2-yn-1-ol]
6.8 | O=S1(=O)CCN(CC#Cc2cn3c(-c4ccc(-c5cnc(C6CC6)[nH]5)cc4)cnc3c(NCCC(F)(F)F)n2)CC1 [Example 61, 3-[4-(2-cyclopropyl-1H-imidazol-5-yl)phenyl]-6-[3-(1,1-dioxidothiomorpholin-4-yl)prop-1-yn-1-yl]-N-(3,3,3-trifluoropropyl)imidazo[1,2-a]pyrazin-8-amine]
4.2 | Cc1cc(-c2cnc3c(NCCC(F)(F)F)nc(C#CCN4CCS(=O)(=O)CC4)cn23)ccc1C(=O)NC1CC1 [Example 62, N-cyclopropyl-4-{6-[3-(1,1-dioxidothiomorpholin-4-yl)prop-1-yn-1-yl]-8-[(3,3,3-trifluoropropyl)amino]imidazo[1,2-a]pyrazin-3-yl}-2-methylbenzamide]
135 | C#Cc1cn2c(-c3ccc(C(=O)NC)c(C)c3)cnc2c(NCCC(F)(F)F)n1 [Example 63, 4-{6-Ethynyl-8-[(3,3,3-trifluoropropyl)amino]imidazo[1,2-a]pyrazin-3-yl}-N,2-dimethylbenzamide]
120 | C#Cc1cn2c(-c3ccc(C(=O)NCC)c(C)c3)cnc2c(NCCC(F)(F)F)n1 [Example 64, N-ethyl-4-{6-ethynyl-8-[(3,3,3-trifluoropropyl)amino]imidazo[1,2-a]pyrazin-3-yl}-2-methylbenzamide]
215 | C#Cc1cn2c(-c3ccc(C(=O)NCC(F)F)c(C)c3)cnc2c(NCCC(F)(F)F)n1 [Example 65, N-(2,2-difluoroethyl)-4-{6-ethynyl-8-[(3,3,3-trifluoropropyl)amino]imidazo[1,2-a]pyrazin-3-yl}-2-methylbenzamide]
155 | C#Cc1cn2c(-c3ccc(C(=O)NC4(C)CC4)c(C)c3)cnc2c(NCCC(F)(F)F)n1 [Example 66, 4-{6-ethynyl-8-[(3,3,3-trifluoropropyl)amino]imidazo[1,2-a]pyrazin-3-yl}-2-methyl-N-(1-methylcyclopropyl)benzamide]
165 | C#Cc1cn2c(-c3ccc(C(=O)NC4(C#N)CC4)c(C)c3)cnc2c(NCCC(F)(F)F)n1 [Example 67, N-(1-cyanocyclopropyl)-4-{6-ethynyl-8-[(3,3,3-trifluoropropyl)amino]imidazo[1,2-a]pyrazin-3-yl}-2-methylbenzamide]
305 | C#Cc1cn2c(-c3ccc(C(=O)NC4(OC)CC4)c(C)c3)cnc2c(NCCC(F)(F)F)n1 [Example 68, 4-{6-ethynyl-8-[(3,3,3-trifluoropropyl)amino]imidazo[1,2-a]pyrazin-3-yl}-N-(1-methoxycyclopropyl)-2-methylbenzamide]
69 | CNC(=O)c1ccc(-c2cnc3c(NCCC(F)(F)F)nc(C#CCO)cn23)cc1C [Example 70, 4-{6-(3-Hydroxyprop-1-yn-1-yl)-8-[(3,3,3-trifluoropropyl)amino]imidazo[1,2-a]pyrazin-3-yl}-N,2-dimethylbenzamide]
150 | CCNC(=O)c1ccc(-c2cnc3c(NCCC(F)(F)F)nc(C#CCO)cn23)cc1C [Example 71, N-ethyl-4-{6-(3-hydroxyprop-1-yn-1-yl)-8-[(3,3,3-trifluoropropyl)amino]imidazo[1,2-a]pyrazin-3-yl}-2-methylbenzamide]
130 | Cc1cc(-c2cnc3c(NCCC(F)(F)F)nc(C#CCO)cn23)ccc1C(=O)NCC(F)F [Example 72, N-(2,2-difluoroethyl)-4-{6-(3-hydroxyprop-1-yn-1-yl)-8-[(3,3,3-trifluoropropyl)amino]imidazo[1,2-a]pyrazin-3-yl}-2-methylbenzamide]
120 | Cc1cc(-c2cnc3c(NCCC(F)(F)F)nc(C#CCO)cn23)ccc1C(=O)NC1(C)CC1 [Example 73, 4-{6-(3-hydroxyprop-1-yn-1-yl)-8-[(3,3,3-trifluoropropyl)amino]imidazo[1,2-a]pyrazin-3-yl}-2-methyl-N-(1-methylcyclopropyl)benzamide]
98 | Cc1cc(-c2cnc3c(NCCC(F)(F)F)nc(C#CCO)cn23)ccc1C(=O)NC1(C#N)CC1 [Example 74, N-(1-cyanocyclopropyl)-4-{6-(3-hydroxyprop-1-yn-1-yl)-8-[(3,3,3-trifluoropropyl)amino]imidazo[1,2-a]pyrazin-3-yl}-2-methylbenzamide]
